Laboratory results from ChEMBL document CHEMBL1141920, “Substituted aminobenzimidazole pyrimidines as cyclin-dependent kinase inhibitors” (Bioorg Med Chem Lett, 2005).
Values joined by “and” are separate entries in the source; they are usually repeats but may differ in a detail not shown here. Equal values may be shown once.

Legend:
[1] = target: Cyclin-dependent kinase 1 (Homo sapiens, UniProt P06493); assay: Inhibitory concentration against Cyclin dependent kinase 1
[2] = Inhibitory concentration against Platelet-derived growth factor receptor
[3] = target: Mitogen-activated protein kinase 3 (Homo sapiens, UniProt P27361); assay: Inhibitory concentration against Extracellular signal-regulated kinase 1
Mitogen-activated protein kinase 3, sequence (P27361 whole entry): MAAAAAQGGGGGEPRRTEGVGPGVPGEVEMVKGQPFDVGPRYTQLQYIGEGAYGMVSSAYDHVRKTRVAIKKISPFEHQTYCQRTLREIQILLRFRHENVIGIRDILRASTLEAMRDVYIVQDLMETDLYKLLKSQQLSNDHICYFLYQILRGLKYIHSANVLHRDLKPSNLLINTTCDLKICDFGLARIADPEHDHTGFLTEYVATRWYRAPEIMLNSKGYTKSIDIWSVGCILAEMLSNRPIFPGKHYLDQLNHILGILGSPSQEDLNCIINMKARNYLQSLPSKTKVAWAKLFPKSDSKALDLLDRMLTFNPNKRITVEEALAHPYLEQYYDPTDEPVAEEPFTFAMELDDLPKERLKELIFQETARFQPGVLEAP

[4] = Inhibitory concentration against Casein kinase 2
[5] = Inhibitory concentration against Mitogen-activated protein kinase p38; set-up: species or system Homo sapiens
[6] = Inhibitory concentration against Cyclin dependent kinase 2; set-up: species or system Homo sapiens
[7] = target: Cyclin-dependent kinase 4 (Homo sapiens, UniProt P11802); assay: Inhibitory concentration against Cyclin dependent kinase 4
Cyclin-dependent kinase 4, sequence (P11802 whole entry): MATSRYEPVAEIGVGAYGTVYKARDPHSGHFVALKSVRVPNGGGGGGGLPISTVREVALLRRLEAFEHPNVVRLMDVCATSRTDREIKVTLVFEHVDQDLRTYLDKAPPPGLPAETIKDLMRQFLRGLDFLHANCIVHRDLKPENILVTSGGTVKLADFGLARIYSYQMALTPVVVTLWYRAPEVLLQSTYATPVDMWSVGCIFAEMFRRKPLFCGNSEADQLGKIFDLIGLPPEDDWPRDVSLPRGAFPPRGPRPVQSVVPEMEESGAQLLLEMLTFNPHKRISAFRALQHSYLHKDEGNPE

Cyclin-dependent kinase 1, sequence (P06493 whole entry): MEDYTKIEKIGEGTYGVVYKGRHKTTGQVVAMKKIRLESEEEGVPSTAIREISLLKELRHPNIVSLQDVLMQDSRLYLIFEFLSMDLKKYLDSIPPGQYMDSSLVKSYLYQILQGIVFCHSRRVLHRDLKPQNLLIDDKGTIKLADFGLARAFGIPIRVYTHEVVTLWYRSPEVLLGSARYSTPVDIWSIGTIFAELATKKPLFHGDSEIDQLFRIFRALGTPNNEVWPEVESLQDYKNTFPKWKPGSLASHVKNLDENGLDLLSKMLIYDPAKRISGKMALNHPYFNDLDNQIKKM

SMILES | IC50 [1] [nM] | other results
COc1cccc(Oc2nc(Nc3ccc4nc[nH]c4c3)ncc2C(F)(F)F)c1 | 160 | –
FC(F)(F)c1cnc(Nc2ccc3[nH]cnc3c2)nc1Nc1ccccc1Cl | – | IC50 [2]: 290 nM; IC50 [3]: > 1000 nM; IC50 [4]: 510 nM; IC50 [5]: > 1000 nM
FC(F)(F)c1cnc(Nc2cccc(Cl)c2)nc1Nc1ccc2[nH]cnc2c1 | 22 | –
Cc1ccccc1Oc1nc(Nc2ccc3[nH]cnc3c2)ncc1C(F)(F)F | 4 | –
FC(F)(F)c1cnc(Nc2ccc3nc[nH]c3c2)nc1Oc1ccc(Cl)cc1 | 252 | –
FC(F)(F)c1cnc(Nc2ccccc2Cl)nc1Nc1ccc2nc[nH]c2c1 | > 1000 | –
CC(C)Oc1nc(Nc2ccc3nc[nH]c3c2)ncc1C(F)(F)F | 25 | –
FC(F)(F)c1cnc(Nc2ccc3[nH]ccc3c2)nc1Nc1ccc2[nH]ccc2c1 | > 1000 | –
Fc1cnc(Nc2ccc3[nH]ccc3c2)nc1Nc1ccc2[nH]ccc2c1 | > 1000 | –
COc1cccc(Sc2nc(Nc3ccc4nc[nH]c4c3)ncc2C(F)(F)F)c1 | > 1000 | –
FC(F)(F)c1cnc(Nc2ccc3nc[nH]c3c2)nc1Nc1cccc(Cl)c1 | 3 | –
Clc1cccc(CNc2nc(Nc3ccc4[nH]cnc4c3)ncc2Br)c1Cl | 126 | –
Brc1cnc(Nc2ccc3[nH]cnc3c2)nc1NC1CCc2ccccc21 (centres undefined) | 34 | –
Cc1ccccc1Sc1nc(Nc2ccc3[nH]cnc3c2)ncc1C(F)(F)F | 135 | –
FC(F)(F)c1cnc(Nc2ccc3[nH]cnc3c2)nc1Nc1ccc2[nH]cnc2c1 | 10 | –
CCOc1nc(Nc2ccc3nc[nH]c3c2)ncc1C(F)(F)F | 77 | –
Fc1ccc(Oc2nc(Nc3ccc4[nH]cnc4c3)ncc2C(F)(F)F)cc1 | 32 | –
Brc1cnc(Nc2ccc3nc[nH]c3c2)nc1NC1CCCc2ccccc21 (centres undefined) | 392 | –
FC(F)(F)c1ccc(Oc2nc(Nc3ccc4[nH]cnc4c3)ncc2C(F)(F)F)cc1 | > 1000 | –
c1cc(Nc2ccc3[nH]cnc3c2)nc(Nc2ccc3[nH]cnc3c2)n1 | > 1000 | –
c1cc(Nc2ccc3[nH]ccc3c2)nc(Nc2ccc3[nH]ccc3c2)n1 | > 1000 | –
CN(c1cccc(Cl)c1)c1ncc(C(F)(F)F)c(Nc2ccc3nc[nH]c3c2)n1 | > 1000 | –
CC(C)COc1nc(Nc2ccc3[nH]cnc3c2)ncc1C(F)(F)F | 2 | –
FC(F)(F)c1cnc(Nc2ccc3[nH]cnc3c2)nc1OC1CCCCC1 | 43 | –

Now from value to molecule, other results behind:

IC50 [1] [nM] | SMILES | other results
430 | Fc1cnc(Nc2ccc3nc[nH]c3c2)nc1Nc1ccc2nc[nH]c2c1 | –
8 | COc1ccc(Nc2nc(Nc3ccc4[nH]cnc4c3)ncc2C(F)(F)F)cc1 | IC50 [6]: 31 nM; IC50 [2]: 33 nM; IC50 [3]: > 1000 nM; IC50 [4]: 11 nM; IC50 [5]: > 1000 nM; IC50 [7]: 57 nM and 230 nM
9 | Clc1cccc(Nc2ncc(Br)c(Nc3ccc4nc[nH]c4c3)n2)c1 | –
248 | Brc1cnc(Nc2ccc(Oc3cccnc3)cc2)nc1Nc1ccc2nc[nH]c2c1 | –
15 | FC(F)(F)c1ccc(Nc2ncc(C(F)(F)F)c(Nc3ccc4nc[nH]c4c3)n2)cc1 | –
15 | Cc1cccc(Nc2ncc(C(F)(F)F)c(Nc3ccc4nc[nH]c4c3)n2)c1 | –
0.1 | NS(=O)(=O)c1ccc(Nc2ncc(C(F)(F)F)c(Nc3ccc4nc[nH]c4c3)n2)cc1 | –
14 | Brc1cnc(Nc2ccc3nc[nH]c3c2)nc1Nc1ccc2nc[nH]c2c1 | –
9 | Brc1cnc(Nc2ccc3[nH]cnc3c2)nc1Nc1ccc2c(c1)OCO2 | –
4 | Fc1ccc(Nc2nc(Nc3ccc4[nH]cnc4c3)ncc2Br)cc1 | –
4 | FC(F)(F)c1cnc(Nc2ccc3nc[nH]c3c2)nc1Nc1ccc(Cl)cc1 | –
562 | FC(F)(F)c1cnc(Nc2ccc3nc[nH]c3c2)nc1Oc1ccc(Br)cc1 | –
> 1000 | Brc1cnc(Nc2ccc3[nH]ccc3c2)nc1Nc1ccc2[nH]ccc2c1 | –
11 | FC(F)(F)c1cnc(Nc2ccc(Br)cc2)nc1Nc1ccc2[nH]cnc2c1 | IC50 [6]: 73 nM; IC50 [2]: 190 nM; IC50 [3]: 750 nM; IC50 [4]: 91 nM; IC50 [5]: > 1000 nM; IC50 [7]: 260 nM and 1200 nM
34 | Brc1cnc(Nc2ccc3nc[nH]c3c2)nc1Nc1ccc(Oc2cccnc2)cc1 | –
